Where two headings read alike, the source gives them in different places.
What was measured:
[1] = target: T1, fatty acyl CoA: cholesterol acyl transferase (ACAT) (Rattus norvegicus, UniProt O70536); assay: Inhibition of fatty acyl CoA:cholesterol acyl transferase (ACAT), rat adrenal enzyme; format: biochemical
T1 construct: The supernatant, containing the microsomal fraction, served as the source of the cholesterol-esterifying enzyme; from tissue; host or cells: rat adrenals, supernatant of 1,000 x g centrifugation containing the microsomal fraction
T1 sequence (O70536 1-545): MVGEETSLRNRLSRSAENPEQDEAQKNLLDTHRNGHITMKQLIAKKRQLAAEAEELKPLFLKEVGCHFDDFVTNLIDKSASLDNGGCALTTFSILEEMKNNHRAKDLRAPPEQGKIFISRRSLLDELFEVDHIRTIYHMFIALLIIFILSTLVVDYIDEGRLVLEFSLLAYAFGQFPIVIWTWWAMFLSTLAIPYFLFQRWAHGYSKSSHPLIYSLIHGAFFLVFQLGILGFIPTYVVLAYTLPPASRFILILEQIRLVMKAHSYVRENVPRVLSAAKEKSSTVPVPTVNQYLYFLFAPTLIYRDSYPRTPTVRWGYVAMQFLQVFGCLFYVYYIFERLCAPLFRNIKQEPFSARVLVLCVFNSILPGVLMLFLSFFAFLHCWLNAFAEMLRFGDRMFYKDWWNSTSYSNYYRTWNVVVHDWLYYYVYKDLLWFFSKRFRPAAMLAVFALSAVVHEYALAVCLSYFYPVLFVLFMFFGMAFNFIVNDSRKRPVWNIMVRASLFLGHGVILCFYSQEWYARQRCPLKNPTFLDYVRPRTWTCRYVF
Method: The compounds of the present invention were assayed for two types of biological activity related to their potential use as antiatherosclerotic agents. Compounds were tested in vitro for the ability to inhibit the enzyme fatty acyl CoA: cholesterol acyl transferase (ACAT) and in vivo for serum hypolipidemic activity as meausred by the ability to inhibit lipid absorption in rats.
The compounds were tested for their ability to inhibit ACAT according to the following procedure: rat adrenals were homogenized in 0.2M monobasic potassium phosphate buffer, pH 7.4, and centrifuged at 1,000 times gravity for 15 minutes at 5° C. The supernatant, containing the microsomal fraction, served as the source of the cholesterol-esterifying enzyme, fatty acyl CoA:cholesterol acyl transferase (ACAT). A mixture comprising 50 parts of adrenal supernatant, 10 parts of bovine serum albumin (50 mg/ml), 3 parts of test compound (final concentration 5.2 μg/ml), and 500 parts of buffer was preincubated at 37° C. for 10 minutes. After treatment with 20 parts of oleoyl CoA (^14 C-0.4 μCi), the mixture was incubated at 37° C. for 10 minutes. A control mixture, omitting the test compound, was prepared and treated in the same manner. The lipids from the incubation mixture was extracted into an organic solvent and separated by thin-layer chromatography. The cholesteryl ester fraction was counted in a scintillation counter. This procedure is a modification of that described by Hashimoto, et al., Life Scie., 12 (Part II), 1-12 (1973).
Compounds which produced statistically significant inhibition of the ACAT enzyme are considered to be active.
In addition to the above described test and the results given in terms of percent inhibition, various compounds of this invention were tested by the same procedure at several concentrations. The results of this test are given in Table II in terms of IC50 (μM), that concentration which produced 50% inhibition of the ACAT enzyme.

[2] = system: cholesterol absorption; assay: Inhibition of cholesterol absorption in rats fed 1% cholesterol:0.5% cholic acid diet; format: in vivo, male Sprague-Dawley rats; details: po, 336 h, rat, 2 weeks; for response vs control in vivo at 0.001 %: dose .001% of the diet; for response vs control in vivo at 0.01 %: dose .01% of the diet; for response vs control in vivo at 0.003 %: dose .003% of the diet; for response vs control in vivo at 0.03 %: dose .03% of the diet
Method: Inhibition of cholesterol absorption was determined by feeding male Sprague-Dawley rats, weighing 150-170 g, a 1% cholesterol:0.5% cholic acid diet for 2 weeks. The diet also contained compounds being tested at a dose of 0.001, 0.003, 0.01, or 0.03% of the diet. Control rats were fed the same diet without any compound. At the end of the test, the rats were sacrificed by decapitation. Blood was collected, centrifuged at […] for 10 minutes at 4° C.; and the serum was then analyzed for cholesterol and triglycerides enzymatically by the method of Trinder, P., Analyst, 77, 321 (1952) on a Centrifichem 400 analyzer. Livers were removed, a 0.4 g sample was taken from the center of the large lobe, and the sample was subjected to saponification using 25% saturated potassium hydroxide in ethanol. The resulting neutral sterols were extracted with petroleum ether and the extract analyzed for cholesterol. The effectiveness of the compound in inhibiting cholesterol absorption was measured by the lowering of either serum cholesterol or liver cholesterol relative the values for control rats.
Compounds which produced statistically significant inhibition of cholesterol absorption are considered to be active. Liver sterol (LS) and serum sterol (SS) values are expressed as a percentage of control values.

[3] = rat adrenal ACAT, final concentration 5.2 μg/ml, read-out: % Inhibition
[4] = read-out: LS (liver sterol), percentage of control values
[5] = read-out: SS (serum sterol), percentage of control values

Compound `COc1ccc(CCN(Cc2ccc(C)c(Cl)c2)C(=O)Nc2ccc(C)cc2C)cc1OC` [1-[2-(3,4-Dimethoxyphenyl)ethyl]-1-(3-chloro-4-methylbenzyl)-3-(2,4-dimethylphenyl)urea] has an inhibition at 5.2 µg/mL [1, 3] of 53.3%.

With `CCCCCCCN(Cc1ccc(CCCC)cc1)C(=O)Nc1cccc(C(F)(F)F)c1` [1-(n-Heptyl)-1-[4-(n-butyl)benzyl]-3-(3-trifluoromethylphenyl)urea] the inhibition at 5.2 µg/mL [1] was 90%.

In the case of `CCCCc1ccc(CN(CCCCCCO)C(=O)Nc2ccc(C)cc2C)cc1` [1-[(4-Butylphenyl)methyl]-3-(2,4-dimethylphenyl)-1-(6-hydroxyhexyl)urea], the inhibition at 5.2 µg/mL [1, 3] is reported as 96.8%.

In the case of `CCCCN(Cc1ccccc1)C(=O)Nc1cccc(C)c1C` [1-Benzyl-1-( -n-butyl)-3-(2,3-dimethylphenyl)urea], the inhibition at 5.2 µg/mL [1, 3] is reported as 85.8%.

`CCCCN(CCCc1ccccc1)C(=O)Nc1ccc(C)cc1C` [1-(n-Butyl)-1-(3-phenylpropyl)-3-(2,4-dimethylphenyl)urea] gave an inhibition at 5.2 µg/mL [1, 3] of 97.4%.

In the case of `CCCCN(Cc1ccccc1)C(=O)Nc1c(C)cc(C)cc1C` [1-Benzyl-1-( -n-butyl)-3-(2,4,6-trimethylphenyl)urea], the inhibition at 5.2 µg/mL [1, 3] is reported as 75.8%.

For `CCCCN(Cc1ccc2c(c1)OCO2)C(=O)Nc1ccc(C)cc1C` [1-(n-Butyl)-1-(3,4-methylenedioxybenzyl)-3-(2,4-dimethylphenyl)urea], the inhibition at 5.2 µg/mL [1, 3] was 88.2%.

In the case of `CCCCN(Cc1ccc(OC)cc1)C(=O)Nc1ccc(C)cc1C` [1-(n-Butyl)-1-(4-methoxybenzyl)-3-(2,4-dimethylphenyl)urea], the inhibition at 5.2 µg/mL [1, 3] is reported as 94.2%.

`CCCCc1ccc(CN(CCC(C)(C)C)C(=O)Nc2c(F)cc(F)cc2F)cc1` [1-[(4-butylphenyl)methyl]-1-[3,3-dimethylbutyl]-3-[2,4,6-trifluorophenyl]urea] was tested, and the inhibition at 5.2 µg/mL [1] was 90%.

Compound `COc1cccc(C(Cc2ccccc2)N(Cc2ccccc2)C(=O)Nc2cccc(C(F)(F)F)c2)c1` (centres unmarked) [1-Benzyl-1-[1-(3-methoxyphenyl)-2-phenylethyl]-3-(3-trifluoromethylphenyl)urea] has an inhibition at 5.2 µg/mL [1, 3] of 88.1%.

`CCCCCCCN(Cc1ccc(OCCC(C)C)cc1)C(=O)Nc1c(C)cc(Cl)cc1C` [1-(n-Heptyl)-1-[4-(isopentyloxy)benzyl]-3-(4-chloro-2,6-dimethylphenyl)urea] showed a response vs control in vivo at 0.001 % [2, 4] of 23% and a response vs control in vivo at 0.001 % [2, 5] of 25%.

Compound `CCCCCCCN(Cc1ccc(OCCC(C)C)cc1)C(=O)Nc1ccc(F)cc1F` [1-(n-Heptyl)-1-[4-(3-methylbutoxy)benzyl]-3-(2,4-difluorophenyl)urea] has a response vs control in vivo at 0.01 % [2, 4] of 32% and a response vs control in vivo at 0.01 % [2, 5] of 27%.

`CCCCCCCN(Cc1ccc(C(C)CCCC(C)C)cc1)C(=O)Nc1ccc(F)cc1F` (centres unmarked) [1-(n-Heptyl)-1-[4-(1,5-dimethylhexyl)benzyl]-3-(2,4-difluorophenyl)urea] was tested, and the response vs control in vivo at 0.001 % [2, 4] was 88% and the response vs control in vivo at 0.001 % [2, 5] was 83%.

For `CCCCCCCN(Cc1ccc(CC2CCC2)cc1)C(=O)Nc1c(C)cc(Cl)cc1C` [1-(n-Heptyl)-1-[4-(cyclobutylmethyl)benzyl]-3-(4-chloro-2,6-dimethylphenyl)urea], the response vs control in vivo at 0.001 % [2, 4] was 69% and the response vs control in vivo at 0.001 % [2, 5] was 64%.

Compound `CCCCCCCN(Cc1ccc(CCCC(C)C)cc1)C(=O)Nc1ccc(F)cc1F` [1-(n-Heptyl)-1-[4-(isohexyl)benzyl]-3-(2,4-difluorophenyl)urea] has a response vs control in vivo at 0.003 % [2, 4] of 53% and a response vs control in vivo at 0.003 % [2, 5] of 45%.

For `CC(C)(C)CCN(Cc1ccc(Cl)cc1)C(=O)Nc1ccc(C(F)(F)F)cc1` [1-(3,3-Dimethylbutyl)-1-(4-chlorobenzyl)-3-(4-trifluoromethylphenyl)urea], the response vs control in vivo at 0.03 % [2, 4] was 70% and the response vs control in vivo at 0.03 % [2, 5] was 85%.

Work on `CCCCCCCN(Cc1ccc(CC2CCC2)cc1)C(=O)Nc1c(F)cc(F)cc1F` [1-(n-Heptyl)-1-[4-(cyclobutylmethyl)benzyl]-3-(2,4,6-trifluorophenyl)urea] yielded a response vs control in vivo at 0.001 % [2, 4] of 66% and a response vs control in vivo at 0.001 % [2, 5] of 62%.

For `CCCCCCCN(Cc1ccc(CC2CCCC2)cc1)C(=O)Nc1c(C)cc(Cl)cc1C` [1-(n-Heptyl)-1-[4-(cyclopentylmethyl)benzyl]-3-(4-chloro-2,6-dimethylphenyl)urea], the response vs control in vivo at 0.003 % [2, 4] was 53% and the response vs control in vivo at 0.003 % [2, 5] was 45%.

Work on `CCCCCCCN(Cc1ccc(CCCC(C)C)cc1)C(=O)Nc1c(C)cc(Cl)cc1C` [1-(n-Heptyl)-1-[4-(isohexyl)benzyl]-3-(4-chloro-2,6-dimethylphenyl)urea] yielded a response vs control in vivo at 0.001 % [2, 4] of 73% and a response vs control in vivo at 0.001 % [2, 5] of 64%.

`Cc1cc(Cl)cc(C)c1NC(=O)N(CCCCC(C)C)Cc1ccc(CCC(C)C)cc1` [1-(Isoheptyl)-1-[4-(isopentyl)benzyl]-3-(4-chloro-2,6-dimethylphenyl)urea] was tested, and the response vs control in vivo at 0.001 % [2, 4] was 40% and the response vs control in vivo at 0.001 % [2, 5] was 40%.

In the case of `CCCCCCCN(Cc1ccc(CC(CC)CC)cc1)C(=O)Nc1ccc(F)cc1F` [1-(n-Heptyl)-1-[4-(2-ethylbutyl)benzyl]-3-(2,4-difluorophenyl)urea], the response vs control in vivo at 0.003 % [2, 4] is reported as 98% and the response vs control in vivo at 0.003 % [2, 5] is reported as 66%.

Compound `CCCCCCCN(Cc1ccc(CC(CC)CC)cc1)C(=O)Nc1c(F)cc(F)cc1F` [1-(n-Heptyl)-1-[4-(2-ethylbutyl)benzyl)-3-(2,4,6-trifluorophenyl)urea] has a response vs control in vivo at 0.001 % [2, 4] of 75% and a response vs control in vivo at 0.001 % [2, 5] of 120%.

Work on `CCCCCCCN(Cc1ccc(CC(C)C(C)CC)cc1)C(=O)Nc1c(F)cc(F)cc1F` (centres unmarked) [1-(n-Heptyl)-1-[4-(2,3-dimethylpentyl)benzyl]-3-(2,4,6-trifluorophenyl)urea] yielded a response vs control in vivo at 0.01 % [2, 4] of 31% and a response vs control in vivo at 0.01 % [2, 5] of 33%.

Compound `CCCCCCCN(Cc1ccc(CCS(=O)(=O)C(C)C)cc1)C(=O)Nc1ccc(F)cc1F` [1-(n-Heptyl)-1-[4-(2-isopropylsulfonylethyl)benzyl]-3-(2,4-difluorophenyl)urea] has a response vs control in vivo at 0.003 % [2, 4] of 68% and a response vs control in vivo at 0.003 % [2, 5] of 94%.

`CCCCCCCN(Cc1ccc(CCC(C)CC)cc1)C(=O)Nc1c(F)cc(F)cc1F` (centres unmarked) [1-(n-Heptyl)-1-[4-(3-methylpentyl)benzyl]-3-(2,4,6-trifluorophenyl)urea] gave a response vs control in vivo at 0.003 % [2, 4] of 46% and a response vs control in vivo at 0.003 % [2, 5] of 36%.

`CCCCc1ccc(CN(CCC(C)(C)C)C(=O)Nc2ccc(C(F)(F)F)cc2)cc1` [1-(3,3-Dimethylbutyl)-1-[4-(n-butyl)benzyl]-3-(4-trifluoromethylphenyl)urea] showed a response vs control in vivo at 0.03 % [2, 4] of 86% and a response vs control in vivo at 0.03 % [2, 5] of 100%.

With `CCCCCCCN(Cc1ccc(C2CCCC2)cc1)C(=O)Nc1c(Cl)cc(Cl)cc1Cl` [1-(n-Heptyl)-1-[4-(cyclopentyl)benzyl]-3-(4-chloro-2,6-dichlorophenyl)urea] the response vs control in vivo at 0.003 % [2, 4] was 36% and the response vs control in vivo at 0.003 % [2, 5] was 35%.

Source: patent publication US4623662A, “Antiatherosclerotic ureas and thioureas” (American Cyanamid Company, priority 1985, dated 1986)
